Measurements taken from article PMC6321453, “Identification of Pinocembrin as an Anti-Glycation Agent and α-Glucosidase Inhibitor from Fingerroot (Boesenbergia rotunda): The Tentative Structure–Activity Relationship towards MG-Trapping Activity” (Molecules, 2018).

What was measured:
[1] = Direct MG-trapping activity by HPLC; settings: compound 0.1 mM, MG 0.1 mM, PBS pH 7.4, 37 °C, 24 h; HPLC of 2-MQ
Method: Figure 3 The percentage of MG-trapping abilities of isolated compounds (0.1 mM). The results are presented as the mean ± SEM for n = 3. Different letters show significant differences, as analyzed by ANOVA, with Duncan’s post hoc test (p < 0.05).
The ability of the isolated compounds to trap MG was carried out, according to our previous report. The reaction mixture of MG (0.1 mM), isolated compound (0.1 mM in DMSO) and 0.1 M PBS (pH 7.4) was incubated at 37 °C for 24 h. The quantitative amount of the remaining MG was determined by derivatization with o-phenylenediamine (o-PDA) to convert to 2-methylquinoxaline (2-MQ). Then, 2-MQ obtained was measured by HPLC using 5-methylquinoxaline (5-MQ) as an internal standard. The mixture comprising 100 µL of o-PDA (20 mM) and 100 µL of 5-MQ (5 mM) was added into the sample vials, and incubated at 25 °C for 30 min. HPLC analysis was performed on a Shimadzu HPLC system (binary pump; model LC-10A, an auto-injector; model SIL-10A, and a UV detector; model SPD-10A) equipped with an Inertsil ODS-3 V C18 column (4.6 × 150 mm, 5 μm particle diameter). The column was flushed with a mixture of 1:1 methanol–water at a flow rate of 1 mL/min, and a 10 μL of injection volume. The overall running time was 15 min, and the wavelength used for detection was 315 nm. The area under each chromatogram peak, 2-MQ and 5-MQ, was calculated with an LC solution program. Peak integrality proportions of 2-MQ to 5-MQ were utilized for quantitative examination. The amount of MG was calculated by utilizing the standard curve of 2-MQ/5-MQ proportion. AG was utilized as a positive control. The percentage MG-trapping was calculated utilizing the formula below:(2) %MG−trapping=100−[Amount of (MG in sample−MG in positive control)/Amount of MG in positive control×100]

[2] = test system: MG-derived AGEs formation in BSA; assay: In vitro glycation of BSA by MG-BSA assay (fluorescent-AGEs formation); assay type: biochemical, bovine; settings: compound 0.1 mM, BSA 10 mg/mL, MG 0.25 mM, PBS pH 7.4, 37 °C, 24 h; fluorescence ex 355/em 460 nm
Method: All isolated compounds were evaluated for their inhibitory effect on the fluorescent-AGEs formation after incubation with bovine serum albumin (BSA) and MG for 24 h (Figure 2).
Figure 2 Advanced glycation-end products (AGEs) inhibition activity of aminoguanidine (0.1 mM) and isolated compounds (0.1 mM) on MG-derived AGEs formation inhibition in BSA. The results are presented as mean ± SEM for n = 3. Different letters show significant differences analyzed by ANOVA with Duncan’s post hoc test (p < 0.05).
Glycated BSA was carried out according to our previous study. The mixture of bovine serum albumin (BSA, 10 mg/mL), isolated compound (0.1 mM in dimethyl sulfoxide, DMSO), and methylglyoxal (MG, 0.25 mM) in 0.1 M phosphate buffer solution (PBS, pH 7.4) was incubated at 37 °C for 24 h. The glycated BSA was monitored by a spectrofluorometer (Fluroskan Ascent FL, Thermo Scientific, Barrington, IL, USA) at the excitation wavelength of 355 nm, and an emission wavelength of 460 nm. Aminoguanidine hydrochloride (AG) was utilized as a positive control. The percentage inhibition of MG-derived AGE formation was calculated by utilizing the formula below:(1) Inhibition of AGEs formation (%)=(FC−FCB)−(FS−FSB)/FC−FCB×100 where FC and FCB are the fluorescent intensities of the control with and without MG, respectively. FS and FSB are the fluorescent intensities of the sample with and without MG, respectively.

rat intestinal maltase = assay: α-Glucosidase inhibitory activity and kinetic study, maltase; assay type: biochemical
Method: (§1) The α-glucosidase (from rat intestine) inhibitory effect was evaluated, utilizing our previous study. Rat intestinal maltase and sucrase, a crude enzyme solution, was prepared from rat intestinal acetone powder. A solution of rat intestinal acetone powder (1 g) in 0.9% NaCl solution (30 mL) was centrifuged (12,000 rpm) for 30 min, and then the aliquot obtained was used for the assay. The mixture of 10 μL of isolated compounds (1 mg/mL in DMSO), 30 μL of the phosphate buffer (0.1 M, pH 6.9), and 20 μL of the substrate solution (10 mM for maltose and 100 mM for sucrose in phosphate buffer) was added to a glucose assay kit (80 μL) and the crude enzyme solution (20 μL), which then was incubated at 37 °C for 10 min and 40 min for maltose and sucrose, respectively. The enzymatic activity was measured at 503 nm by using a microplate reader, model 3550 UV. The percentage inhibition was calculated by [(Ac − As)/Ac] × 100, where Ac is the absorbance of the control, and As is the absorbance in the presence of sample. The results were reported as the IC50 value, and the experiment was carried out in triplicate. Acarbose® was used as a standard control.
(§2) The kinetic analysis of pinocembrin was determined by using an increasing concentration of substrates maltose (2–10 mM) and sucrose (20–100 mM), and a Lineweaver–Burk plot was performed to determine the type of inhibition. The secondary plot was utilized to determine the Ki and Ki′ values, which were replotted between the slope and intercept from the Lineweaver–Burk plot vs the various concentrations of pinocembrin.

[3] = Direct MG-trapping activity by HPLC; settings: against methylglyoxal
rat intestinal sucrase = molecular target: T1, rat intestinal sucrase (Rattus norvegicus, UniProt P23739); assay: α-Glucosidase inhibitory activity and kinetic study, sucrase; assay type: biochemical
T1 construct: a crude enzyme solution, was prepared from rat intestinal acetone powder; from tissue; host or cells: rat intestine (acetone powder, crude extract)
Method: as §1, §2

T1 sequence (P23739 whole entry): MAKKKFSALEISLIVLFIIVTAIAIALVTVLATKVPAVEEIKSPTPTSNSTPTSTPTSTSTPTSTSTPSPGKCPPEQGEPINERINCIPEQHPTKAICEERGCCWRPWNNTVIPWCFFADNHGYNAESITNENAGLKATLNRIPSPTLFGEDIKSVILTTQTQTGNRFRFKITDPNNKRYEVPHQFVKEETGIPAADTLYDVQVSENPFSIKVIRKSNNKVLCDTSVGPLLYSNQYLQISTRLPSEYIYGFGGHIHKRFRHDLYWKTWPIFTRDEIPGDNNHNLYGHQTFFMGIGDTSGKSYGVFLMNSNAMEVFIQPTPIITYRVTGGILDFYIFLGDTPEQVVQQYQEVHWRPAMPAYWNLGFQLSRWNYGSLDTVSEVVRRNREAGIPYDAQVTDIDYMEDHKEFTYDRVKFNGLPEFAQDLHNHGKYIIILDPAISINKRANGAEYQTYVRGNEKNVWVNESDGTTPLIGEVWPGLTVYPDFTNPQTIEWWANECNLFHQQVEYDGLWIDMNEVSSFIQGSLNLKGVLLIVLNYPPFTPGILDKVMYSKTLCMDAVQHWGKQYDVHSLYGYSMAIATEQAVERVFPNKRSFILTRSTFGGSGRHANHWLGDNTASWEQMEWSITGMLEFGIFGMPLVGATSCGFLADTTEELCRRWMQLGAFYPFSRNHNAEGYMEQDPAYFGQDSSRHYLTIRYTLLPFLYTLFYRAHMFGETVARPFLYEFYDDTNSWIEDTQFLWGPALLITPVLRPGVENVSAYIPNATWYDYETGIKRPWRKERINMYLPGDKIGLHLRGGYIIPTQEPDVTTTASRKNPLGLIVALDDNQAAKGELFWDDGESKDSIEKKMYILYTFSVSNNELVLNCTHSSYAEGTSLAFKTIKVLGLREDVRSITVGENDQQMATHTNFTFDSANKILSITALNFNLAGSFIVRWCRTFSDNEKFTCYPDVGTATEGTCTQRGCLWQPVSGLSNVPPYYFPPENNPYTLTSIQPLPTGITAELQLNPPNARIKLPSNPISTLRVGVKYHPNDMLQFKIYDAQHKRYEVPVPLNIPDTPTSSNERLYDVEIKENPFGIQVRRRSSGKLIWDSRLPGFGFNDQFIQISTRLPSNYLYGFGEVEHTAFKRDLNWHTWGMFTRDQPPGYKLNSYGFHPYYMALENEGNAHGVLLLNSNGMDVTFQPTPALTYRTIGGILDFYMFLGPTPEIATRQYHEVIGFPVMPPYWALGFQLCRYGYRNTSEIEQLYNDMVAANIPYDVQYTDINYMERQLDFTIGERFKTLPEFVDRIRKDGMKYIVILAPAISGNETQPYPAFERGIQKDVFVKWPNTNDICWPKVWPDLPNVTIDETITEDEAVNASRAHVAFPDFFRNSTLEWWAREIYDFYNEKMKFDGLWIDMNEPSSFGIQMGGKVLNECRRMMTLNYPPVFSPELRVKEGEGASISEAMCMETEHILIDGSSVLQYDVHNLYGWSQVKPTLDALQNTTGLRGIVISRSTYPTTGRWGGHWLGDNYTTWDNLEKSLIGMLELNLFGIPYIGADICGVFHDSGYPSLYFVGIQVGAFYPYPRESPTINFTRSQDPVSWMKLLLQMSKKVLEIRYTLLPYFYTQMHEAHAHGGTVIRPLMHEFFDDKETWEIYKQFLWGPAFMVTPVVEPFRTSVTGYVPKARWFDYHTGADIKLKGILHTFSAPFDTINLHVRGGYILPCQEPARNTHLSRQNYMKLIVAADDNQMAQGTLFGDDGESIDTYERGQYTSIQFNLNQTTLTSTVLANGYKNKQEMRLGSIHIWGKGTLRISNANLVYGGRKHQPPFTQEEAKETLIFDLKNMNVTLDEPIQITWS

| Compound | MG-trapping activity, percentage related to AG (100%) [1] [%] | Inhibition of MG-derived AGEs formation [2] [%] | further results |
| --- | --- | --- | --- |
| Cl.N=C(N)NN [AG, Aminoguanidine hydrochloride, reference compound] | 100 | 28 | – |
| O=C1C[C@@H](c2ccccc2)Oc2cc(O)cc(O)c21 [compound 1, pinocembrin] | 109 | 38 | Inhibition Type (rat intestinal maltase; maltase, Lineweaver–Burk plot): mixed-type; Ki (rat intestinal maltase; maltase, dissociation constant of EI complex, secondary plot of slope): 93 µM; Ki (rat intestinal maltase; maltase, dissociation constant of ESI complex, secondary plot of intercept): 138 µM; IC50 (rat intestinal maltase; rat intestinal maltase, substrate maltose, read-out: IC50 against maltase): 350 ± 21 µM; EC50 [3]: 63.2 ± 10.1 µM; IC50 (rat intestinal sucrase; rat intestinal sucrase, substrate sucrose, read-out: IC50 against sucrose): 390 ± 20 µM; Inhibition Type (rat intestinal sucrase; sucrase, Lineweaver–Burk plot): mixed-type inhibition; Ki (rat intestinal sucrase; sucrase, dissociation constant of EI complex): 51 µM; Ki (rat intestinal sucrase; sucrase, dissociation constant of ESI complex): 253 µM |
| COc1cc(O)c2c(c1)O[C@H](c1ccccc1)CC2=O [compound 2, pinostrobin] | 5 | 19 | – |
| COc1cc(O)cc(O)c1C(=O)/C=C/c1ccccc1 [compound 4, cardamomin] | 28 | 44 | – |
| COc1cc2c(c(O)c1C(=O)/C=C/c1ccccc1)C=CC(C)(CCC=C(C)C)O2 (stereo not drawn) [compound 5, boesenbergin B] | 19 | 39 | – |
| COc1cc(O)c(C(=O)[C@@H]2[C@H](CC=C(C)C)C(C)=CC[C@H]2c2ccccc2)c(O)c1 [compound 6, panduratin A] | 60 | 43 | – |
| COc1cc(O)cc(O)c1C(=O)C1C(CC=C(C)C)C(C)=CCC1c1ccccc1 (stereo not drawn) [compound 7, isopanduratin A] | 9 | 36 | – |
| COc1cc(/C=C/c2ccccc2)oc(=O)c1 [compound 8, demethoxyyangonin] | 23 | 46 | – |
| alpinetin [compound 3] | 14 | 50 | – |
